Broadly, the MIC is the least concentration at which growth counts as inhibited.

The record followed here is paper PMC5923171, “Novel Zinc-Attenuating Compounds as Potent Broad-Spectrum Antifungal Agents with In Vitro and In Vivo Efficacy” (Antimicrobial Agents and Chemotherapy, 2018).

Converted amounts (≈) assume the structure as drawn. Where two headings read alike, the source gives them in different places.

For one test, the system named is C. albicans SC5314. Kind of test: Antifungal susceptibility testing (MIC). Format: cell-based, Candida albicans. To be noted: at least 50% growth inhibition, RPMI, 24 h, 34°C. The protocol: (§1) Antifungal susceptibility testing was carried out as described previously ([38], [39]), with a few modifications. Briefly, for each yeast or mold growth inhibition assay, frozen stocks of yeast cells or spores were diluted to a final concentration of 0.5 × 10^5 to 2.5 × 10^5 CFU/ml in sterile water. ZAC989, ZAC307, and ZAC623 were dissolved in DMSO to 10 mM stocks from which half-log serial dilutions were prepared. Growth assays were subsequently performed by pipetting 3 μl of compound dissolved in DMSO (giving a final concentration of 1.5% DMSO), 100 μl of cell-spore suspension, and 97 μl of 2× RPMI medium (20.8 g/liter of RPMI 1640 medium, 69.06 g/liter of morpholinepropanesulfonic acid [MOPS], 36 g/liter of glucose) into a microtiter plate that was incubated for 24 h (yeasts) or 48 to 72 h (molds) at 34°C. Fungal growth was determined spectrophotometrically by optical density reading of each well at a wavelength of 492 nm on a Victor X5 (Perkin-Elmer) plate reader. […] Standard errors between repeated experiments were generally below 5%. The growth effect of exogenous addition of various divalent metals was evaluated by performing the antifungal susceptibility assay in the presence of 5 μM ZAC989 or ZAC307 and with increasing concentrations (0.003 to 50 μM) of ZnSO4, CuSO4, (NH4)2Fe(SO4)2, MgCl2, and CaCl2.

A further test deals with C. albicans BWP17. Kind of test: Zinbo-5 assay (intracellular zinc). The format is cell-based, Candida albicans. To be noted: 9 μg/ml ZAC989, 7 μg/ml ZAC307 (25 μM), 15 μg/ml EDTA, 1.3 μg/ml TPEN; 1, 8 or 24 h. The protocol:
C. albicans BWP17 was grown overnight in YPD medium at 30°C and 150 rpm. The cells were pelleted, washed in PBS buffer (D8537; Sigma) 3 times, and resuspended to an OD600 of 2.0. Two microliters of compound in DMSO was mixed with 100 μl of cell suspension and incubated statically for 1, 8, or 24 h at 30°C in a 96-well black plate. Thirty minutes before the end of the incubation period, 100 μl of 10 μM Zinbo-5 (sc-222425; Santa Cruz Biotechnology) in PBS buffer was added. […] The plate was then read on a plate reader (FLUOstar Optima; BMG Lab Technologies) with excitation at 355 nm and emission at 485 nm. The decrease in Zinbo-5 fluorescence was calculated relative to the untreated DMSO control.

Test [1] can be described thus: Potentiometric titration, ligand-copper complex formation. Format: binding. To be noted: for copper binding (in words): potentiometric titration with CuSO4. As for the experimental part:
The Zn^2+-binding properties of ZAC307 and ZAC989 were further evaluated using a potentiometric assay, where pH is measured as a function of base (NaOH) added to the compound in either the absence or presence of metal. […] To determine the deprotonation constant, a solution of 1 mM ZAC307 or ZAC989 was titrated with 0.3 M NaOH at constant ionic strength (Fig. 2A and B). In a second run, the same titration was performed in the presence of 0.5 eq of Zn^2+ for ZAC307 and ZAC989. A shift in the pH curve in the presence of the metal (ZAC307, 0.5 eq of Zn^2+ [Fig. 2A]) compared to the absence of the metal (ZAC307 [Fig. 2A]) indicates binding of Zn^2+ to the compound. The measured pH data were analyzed with the Hyperquad program suite, taking into account all relevant equilibrium constants, including also the constants for metal hydroxylation. The analysis provides the pKa values and metal complex stability constants, as well as ligand-metal complex speciation calculation, indicating how many ZAC molecules are involved in coordinating the Zn^2+ ion at different pH values. […] ZAC989 bound copper with the formation constants log β1, log β2, and log β3 of 7.83, 13.37, and 20.62, respectively. The most dominant ZAC989-copper stoichiometry was a 3:1 stoichiometry (Fig. 2E).
Potentiometric measurements were carried out in DMSO-water (70:30, vol/vol) at 25°C as described previously ([22]). Titrations were performed with a pH meter (Denver Instruments) utilizing a glass electrode with AgCl reference filled with 3.0 M KCl. The electrode was equilibrated in DMSO-water (70:30, vol/vol) for at least 1 h before use. All experiments were performed at a constant ionic strength (0.1 M NaClO4). Three milliliters of a solution containing 1 mM compound was titrated with 0.3 M NaOH by manual additions in 1- to 5-μl increments with magnetic stirring. The metal-ligand binding constants were obtained from titrations of the metal complex solutions prepared in a 1:2 metal-to-ligand ratio. The titration data were refined by the nonlinear least-squares refinement program Hyperquad2013 ([37]) to determine the deprotonation and stability constants.

The next test deals with C. glabrata ATCC 90030. Kind of test: Antifungal susceptibility testing (MIC). The format is cell-based, Candida glabrata. To be noted: Nakaseomyces glabratus, ATCC90030; at least 50% growth inhibition, RPMI, 24 h, 34°C. As for the experimental part: as §1
A further test has as its system C. glabrata Cg003. Kind of test: Antifungal susceptibility testing (MIC). Format: cell-based, Candida glabrata. To be noted: Nakaseomyces glabratus, CG003, 24 h. As for the experimental part:
as §1

Test [2] deals with Aspergillus flavus ATCC 15547. Kind of test: Antifungal susceptibility testing (MIC). To be noted: ATCC15547, no visible growth, 48 to 72 h, 34°C. Format: cell-based. The protocol:
as §1

For test [3], the system named is Aspergillus fumigatus ATCC 13073. Kind of test: Antifungal susceptibility testing (MIC). Format: cell-based. To be noted: ATCC13073, no visible growth, 48 to 72 h, 34°C. As for the experimental part:
as §1

Test [4] concerns Aspergillus terreus At070. Kind of test: Antifungal susceptibility testing (MIC). Format: cell-based. To be noted: no visible growth, 48 to 72 h, 34°C. The protocol: as §1
A further test has as its system C. tropicalis Ct016. Kind of test: Antifungal susceptibility testing (MIC). To be noted: Candida tropicalis, at least 50% growth inhibition, RPMI, 24 h, 34°C. Format: cell-based. As for the experimental part: as §1
In test [5] the test system is Mucor indicus ATCC MYA-4678. Kind of test: Antifungal susceptibility testing (MIC). Format: cell-based. To be noted: no visible growth, 48 to 72 h, 34°C. The protocol: as §1
Test [6] has as its system Rhizopus microsporus ATCC 66276. Kind of test: Antifungal susceptibility testing (MIC). The format is cell-based. To be noted: ATCC66276, no visible growth, 48 to 72 h, 34°C. The protocol:
as §1

In test [7] the test system is Rhizopus oryzae ATCC 34965. Kind of test: Antifungal susceptibility testing (MIC). Format: cell-based. To be noted: Rhizopus arrhizus, ATCC34965; no visible growth, 48 to 72 h, 34°C. As for the experimental part: as §1
Where [8] appears, read: Candida albicans, SC5314, 24 h, read-out: MIC.
Setting [9] is: DMSO-water (70:30, vol/vol), CuSO4.

As to `c1ccc(CN(CCN(Cc2ccccn2)Cc2ccccn2)Cc2ccccn2)nc1` [TPEN, N,N,N’,N’-tetrakis(2-pyridylmethyl)-ethylenediamine], the MIC with C. albicans SC5314 (setting [8]) is around 0.05 µg/mL (≈ 0.118 µM). Moreover, the Zinbo-5 fluorescence entry with C. albicans BWP17 was “time-dependent decrease in Zinbo-5 fluorescence”.
On to `CN(C)c1cc(-n2nc(-c3ccccc3)cc2O)ncn1` [ZAC307, 2-[6-(dimethylamino)pyrimidin-4-yl]-5-phenyl-pyrazol-3-ol], for which, in test [1], the “copper binding (in words)” value is “binds copper”. Further, the MIC in the test with C. albicans SC5314 (setting [8]) turned out to be 0.4 µg/mL (≈ 1.42 µM); in the test with C. glabrata ATCC 90030, 0.2 µg/mL (≈ 0.711 µM); in the test with C. glabrata Cg003 it was 0.2 µg/mL (≈ 0.711 µM); in test [2] it was 1.3 µg/mL (≈ 4.62 µM); in test [3] it was 4 µg/mL (≈ 14.2 µM); in test [4] it was 1.3 µg/mL (≈ 4.62 µM). Moreover, the minimum inhibitory concentration (MIC) against C. tropicalis Ct016 was 0.4 µg/mL (≈ 1.42 µM); in test [5] it was 1.3 µg/mL (≈ 4.62 µM); in test [6], 0.4 µg/mL (≈ 1.42 µM); in test [7], 1.3 µg/mL (≈ 4.62 µM). Also, the Zinbo-5 fluorescence result in the test on C. albicans BWP17 is reported as “decreased the Zinbo-5 fluorescence after only 1 h of incubation”.
As to `O=C(O)CN(CCN(CC(=O)O)CC(=O)O)CC(=O)O` [EDTA], the minimal inhibitory concentration (MIC) in the test on C. albicans SC5314 (setting [8]) was around 0.05 µg/mL (≈ 0.171 µM). In addition, the Zinbo-5 fluorescence result in the test on C. albicans BWP17 was “did not reduce the Zinbo-5 fluorescence”.
As for `Cc1cc(O)n(-c2cc(N3CC[C@H](Oc4cnccc4C#N)C3)ncn2)n1` [ZAC989, 3-[(3S)-1-[6-(5-hydroxy-3-methyl-pyrazol-1-yl)pyrimidin-4-yl]pyrrolidin-3-yl]oxy-pyridine-4-carbonitrile], the “formation constant log β1 (copper)” value in [1] (setting [9]) turned out to be 7.83. Further, in test [1] (setting [9]), the “formation constant log β2 (copper)” value is recorded as 13.37. Besides, in [1] (setting [9]), the “formation constant log β3 (copper)” value was 20.62. For the same compound, the “copper binding (in words)” value in test [1] was “chelates copper”. Also, the MIC in the test on C. albicans SC5314 (setting [8]) stood at 0.4 µg/mL (≈ 1.1 µM); in the test on C. albicans SC5314, 0.6 µg/mL (≈ 1.65 µM); against C. glabrata ATCC 90030 it was 0.9 µg/mL (≈ 2.48 µM); against C. glabrata Cg003, 0.6 µg/mL (≈ 1.65 µM); in test [2] it was 5.1 µg/mL (≈ 14 µM); in test [3], 5.4 µg/mL (≈ 14.9 µM). In addition, the minimum inhibitory concentration (MIC) worked out at 1.6 µg/mL (≈ 4.4 µM) in [4]; 0.9 µg/mL (≈ 2.48 µM) against C. tropicalis Ct016; 1.1 µg/mL (≈ 3.03 µM) in test [5]; 0.5 µg/mL (≈ 1.38 µM) in test [6]; 1.7 µg/mL (≈ 4.68 µM) in [7]. Besides, the Zinbo-5 fluorescence entry with C. albicans BWP17 was “time-dependent decrease in Zinbo-5 fluorescence”.
